34 compounds from patent US12018016B2, “Aryl sulfonyl (hydroxy) piperidines as CCR6 inhibitors” (CHEMOCENTRYX, INC., priority 2021, dated 2024) can be followed below.

For the test, the target named is T1, human CCR6 (Homo sapiens, UniProt P51684).
T1 construct: expressed in transfected cells; host or cells: Ba/F3 cells (mouse pro-B line)
T1 sequence (P51684 1-374): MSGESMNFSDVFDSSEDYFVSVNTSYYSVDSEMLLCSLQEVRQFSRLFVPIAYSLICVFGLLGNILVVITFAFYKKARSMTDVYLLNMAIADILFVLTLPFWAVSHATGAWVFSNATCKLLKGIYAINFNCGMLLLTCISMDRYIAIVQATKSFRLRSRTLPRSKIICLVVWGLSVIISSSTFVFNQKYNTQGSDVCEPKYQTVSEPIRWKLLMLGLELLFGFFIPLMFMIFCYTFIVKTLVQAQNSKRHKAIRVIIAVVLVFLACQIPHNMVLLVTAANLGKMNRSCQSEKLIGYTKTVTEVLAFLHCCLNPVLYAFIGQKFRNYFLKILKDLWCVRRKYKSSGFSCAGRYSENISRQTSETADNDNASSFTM
Put plainly: Migration assay (chemotaxis, ChemoTX). The class given is cell-based. The conditions noted are these: hCCR6-transfected Ba/F3 cells in human serum, migration to recombinant human CCL20 10 nM, 37° C. 45 minutes; read-out: Potency (IC50 value in the migration assay). In outline:
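Ba/F3 cells transfected with human CCR6 and butyrate-primed for 24 h were suspended at 4 million/ml in human serum with compound, serially diluted from a 1 μM final top concentration. Cells migrated through a 5-μm polycarbonate membrane toward 10 nM human CCL20 for 45 min at 37 °C. Migrated cells were quantified by CyQUANT fluorescence.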

Consider `NC(=O)c1cc(-c2ccc(S(=O)(=O)N3CC[C@@H](Nc4ccc(C(F)(F)F)cn4)[C@@H](O)C3)cc2)cnc1O` [Example 51, 2-Hydroxy-5-(4-(((3S,4R)-3-hydroxy-4-((5-(trifluoromethyl)pyridin-2-yl)amino)piperidin-1-yl)sulfonyl)phenyl)nicotinamide], for which the IC50 was below 1 nM.
In the case of `COc1cc(-c2ccc(S(=O)(=O)N3CC[C@@H](Nc4ccc(C(F)(F)F)cn4)[C@@H](O)C3)cc2)cc(C(N)=O)n1` [Example 44, 4-(4-(((3S,4R)-3-Hydroxy-4-((5-(trifluoromethyl)pyridin-2-yl)amino)piperidin-1-yl)sulfonyl)phenyl)-6-methoxypicolinamide] it was below 1 nM; in that of `O=C1NCC[C@H]1Nc1ccc(-c2ccc(S(=O)(=O)N3CC[C@@H](Nc4ccc(C(F)(F)F)cn4)[C@@H](O)C3)cc2)cn1` [Compound 169], below 1 nM; in that of `O=S(=O)(c1ccc(-c2cnnc(N3CCOCC3)c2)cc1)N1CC[C@@H](Nc2ccc(C(F)(F)F)cn2)[C@@H](O)C1` [Compound 200], below 1 nM.
Under `Cc1cncc(-c2ccc(S(=O)(=O)N3CC[C@@H](Nc4ccc(C(F)(F)F)cn4)[C@@H](O)C3)cc2)c1` [Compound 152] stands below 1 nM; under `O=S(=O)(c1ccc(-c2ccc(N3CC(O)C3)nc2)cc1)N1CC[C@@H](Nc2ccc(C(F)(F)F)cn2)[C@@H](O)C1` [Compound 174], below 1 nM; under `O=C1CCc2cc(-c3ccc(S(=O)(=O)N4CC[C@@H](Nc5ccc(C(F)(F)F)cn5)[C@@H](O)C4)cc3)ccc2N1` [Example 2, 6-(4-(((3S,4R)-3-hydroxy-4-((5-(trifluoromethyl)pyridin-2-yl)amino)piperidin-1-yl)sulfonyl)phenyl)-3,4-dihydroquinolin-2(1H)-one], below 1 nM.
In the case of `COc1cc(-c2ccc(S(=O)(=O)N3CC[C@@H](Nc4ccc(C(F)(F)F)cn4)[C@@H](O)C3)cc2)cc(-c2nnc(C)o2)n1` [Compound 214] it was below 1 nM.
Turning to `Cc1cc(C(F)(F)F)cnc1N[C@@H]1CCN(S(=O)(=O)c2ccc(-c3ccnc(C(N)=O)c3)cc2)C[C@@H]1O` [Compound 82, 4-[4-[[(3S,4R)-3-hydroxy-4-[[3-methyl-5-(trifluoromethyl)-2-pyridyl]amino]-1-piperidyl]sulfonyl]phenyl]pyridine-2-carboxamide], the IC50 is below 1 nM.
For `COC1CN(c2cc(-c3ccc(S(=O)(=O)N4CC[C@@H](Nc5ccc(C(F)(F)F)cn5)[C@@H](O)C4)cc3)ccn2)C1` [Compound 136], the IC50 lay within 1 to 10 nM.
Under `Cc1ncc(C(N)=O)cc1-c1ccc(S(=O)(=O)N2CC[C@@H](Nc3ccc(C(F)(F)F)cn3)[C@@H](O)C2)cc1` [Compound 183] stands below 1 nM; under `CC(C)(O)C1CN(c2ccc(-c3ccc(S(=O)(=O)N4CC[C@@H](Nc5ccc(C(F)(F)F)cn5)[C@@H](O)C4)cc3)cn2)C1` [Compound 92], below 1 nM; under `O=S(=O)(c1ccc(-c2ccncc2CO)cc1)N1CC[C@@H](Nc2ccc(C(F)(F)F)cn2)[C@@H](O)C1` [Compound 153], 1 to 10 nM.
In the case of `O=c1[nH]c2ccc(-c3ccc(S(=O)(=O)N4CC[C@@H](Nc5ccc(C(F)(F)F)cn5)[C@@H](O)C4)cc3)cc2[nH]1` [Example 47, 5-(4-(((3S,4R)-3-hydroxy-4-((5-(trifluoromethyl)pyridin-2-yl)amino)piperidin-1-yl)sulfonyl)phenyl)-1,3-dihydro-2H-benzo[d]imidazol-2-one] it was below 1 nM.
In the case of `NC(=O)c1ccc(-c2ccc(S(=O)(=O)N3CC[C@@H](Nc4ccc(C(F)(F)F)cn4)[C@@H](O)C3)cc2)cn1` [Example 28, 5-(4-(((3S,4R)-3-Hydroxy-4-((5-(trifluoromethyl)pyridin-2-yl)amino)piperidin-1-yl)sulfonyl)phenyl)picolinamide] it was below 1 nM; in that of `Cc1nnc(-c2cc(-c3ccc(S(=O)(=O)N4CC[C@@H](Nc5ccc(C(F)(F)F)cn5)[C@@H](O)C4)cc3)ccn2)[nH]1` [Compound 64, (3S,4R)-1-((4-(2-(5-methyl-4H-1,2,4-triazol-3-yl)pyridin-4-yl)phenyl)sulfonyl)-4-((5-(trifluoromethyl)pyridin-2-yl)amino)piperidin-3-ol], 1 to 10 nM; in that of `Cc1c(-c2ccc(S(=O)(=O)N3CC[C@@H](Nc4ccc(C(F)(F)F)cn4)[C@@H](O)C3)cc2)ccc2[nH]ncc12` [Example 26, (3S,4R)-1-((4-(4-methyl-1H-indazol-5-yl)phenyl)sulfonyl)-4-((5-(trifluoromethyl)pyridin-2-yl)amino)piperidin-3-ol], below 1 nM.
On to `Cc1c(-c2ccc(S(=O)(=O)N3CC[C@@H](Nc4ccc(C(F)(F)F)cn4)[C@@H](O)C3)cc2)ccnc1N` [Compound 166], for which the IC50 was below 1 nM.
In the case of `Cc1cc(-c2ccc(S(=O)(=O)N3CC[C@@H](Nc4ccc(C(F)(F)F)cn4)[C@@H](O)C3)cc2)cc2c(C#N)n[nH]c12` [Example 43, 5-(4-(((3S,4R)-3-hydroxy-4-((5-(trifluoromethyl)pyridin-2-yl)amino)piperidin-1-yl)sulfonyl)phenyl)-7-methyl-1H-indazole-3-carbonitrile] it was below 1 nM; in that of `O=C1Cc2ccc(-c3ccc(S(=O)(=O)N4CC[C@@H](Nc5ccc(C(F)(F)F)cn5)[C@@H](O)C4)cc3)cc2N1` [Example 9, 6-(4-(((3S,4R)-3-hydroxy-4-((5-(trifluoromethyl)pyridin-2-yl)amino)piperidin-1-yl)sulfonyl)phenyl)indolin-2-one], below 1 nM; in that of `COc1cc(-c2ccc(S(=O)(=O)N3CC[C@@H](Nc4ccc(C(F)(F)F)cn4)[C@@H](O)C3)cc2)ccn1` [Compound 165], 1 to 10 nM.
In the case of `CN(C)C1CN(c2cc(-c3ccc(S(=O)(=O)N4CC[C@@H](Nc5ccc(C(F)(F)F)cn5)[C@@H](O)C4)cc3)ccn2)C1` [Compound 177] it was 1 to 10 nM.
Consider `N[C@H]1C[C@H](Nc2ccc(-c3ccc(S(=O)(=O)N4CC[C@@H](Nc5ccc(C(F)(F)F)cn5)[C@@H](O)C4)cc3)cn2)C1` [Compound 94], for which the IC50 is below 1 nM.
In the case of `N#Cc1cnccc1-c1ccc(S(=O)(=O)N2CC[C@@H](Nc3ccc(C(F)(F)F)cn3)[C@@H](O)C2)cc1` [Compound 149] it was 1 to 10 nM; in that of `NS(=O)(=O)c1cc(-c2ccc(S(=O)(=O)N3CC[C@@H](Nc4ccc(C(F)(F)F)cn4)[C@@H](O)C3)cc2)ccn1` [Compound 181], below 1 nM.
In the case of `Cc1c(-c2ccc(S(=O)(=O)N3CC[C@@H](Nc4ccc(C(F)(F)F)cn4)[C@@H](O)C3)cc2)c(C)[n+]([O-])c2[nH]ccc12` [Example 62, 5-(4-(((3S,4R)-3-hydroxy-4-((5-(trifluoromethyl)pyridin-2-yl)amino)piperidin-1-yl)sulfonyl)phenyl)-4,6-dimethyl-1H-pyrrolo[2,3-b]pyridine 7-oxide] it was below 1 nM.
Under `Cn1cc(-c2ccc(S(=O)(=O)N3CC[C@@H](Nc4ccc(C(F)(F)F)cn4)[C@@H](O)C3)cc2)nc1C(N)=O` [Compound 72, 4-(4-(((3S,4R)-3-hydroxy-4-((5-(trifluoromethyl)pyridin-2-yl)amino)piperidin-1-yl)sulfonyl)phenyl)-1-methyl-1H-imidazole-2-carboxamide] stands 1 to 10 nM; under `Cn1nc(N)c2cc(-c3ccc(S(=O)(=O)N4CC[C@@H](Nc5ccc(C(F)(F)F)cn5)[C@@H](O)C4)cc3)ccc21` [Example 49, (3S,4R)-1-((4-(3-amino-1-methyl-1H-indazol-5-yl)phenyl)sulfonyl)-4-((5-(trifluoromethyl)pyridin-2-yl)amino)piperidin-3-ol], below 1 nM; under `O=S(=O)(c1ccc(-c2cc(F)c3[nH]ncc3c2)cc1)N1CC[C@@H](Nc2ccc(C(F)(F)F)cn2)[C@@H](O)C1` [Compound 120], below 1 nM.
Consider `Cc1cc(C(F)(F)F)cnc1N[C@@H]1CCN(S(=O)(=O)c2ccc(-c3cnc4[nH]cc(C#N)c4c3)cc2)C[C@@H]1O` [Compound 192], for which the IC50 is below 1 nM.
Under `COc1nccc(-c2ccc(S(=O)(=O)N3CC[C@@H](Nc4ccc(C(F)(F)F)cn4)[C@@H](O)C3)cc2)c1OC` [Compound 150] stands below 1 nM; under `Cc1nc2[nH]cc(C#N)c2c(C)c1-c1ccc(S(=O)(=O)N2CC[C@@H](Nc3ccc(C(F)(F)F)cn3)[C@@H](O)C2)cc1` [Example 63, 5-(4-(((3S,4R)-3-hydroxy-4-((5-(trifluoromethyl)pyridin-2-yl)amino)piperidin-1-yl)sulfonyl)phenyl)-4,6-dimethyl-1H-pyrrolo[2,3-b]pyridine-3-carbonitrile], below 1 nM.
For `Cc1nnc(-c2cc(-c3ccc(S(=O)(=O)N4CC[C@@H](Nc5ncc(C(F)(F)F)cc5C)[C@@H](O)C4)cc3)ccn2)o1` [Compound 84, (3S,4R)-1-[4-[2-(5-methyl-1,3,4-oxadiazol-2-yl)-4-pyridyl]phenyl]sulfonyl-4-[[3-methyl-5-(trifluoromethyl)-2-pyridyl]amino]piperidin-3-ol], the IC50 is below 1 nM.
In the case of `O=S(=O)(c1ccc(-c2cnc3[nH]ccc3c2Cl)cc1)N1CC[C@@H](Nc2ccc(C(F)(F)F)cn2)[C@@H](O)C1` [Compound 209] it was below 1 nM.
